In patent US7060709B2, “Method of treating hepatic fibrosis” (Wyeth, priority 2003, dated 2006):

Key:
orthotopic glioma = conditions: nude mice; cited from earlier work
[1] = stability of CCI-779 in parenteral cosolvent formulation; format: physicochemical; conditions: citric acid at a concentration of less than 0.01% w/v
From the text: In this embodiment, the stability of CCI-779 in parenterally acceptable alcoholic cosolvents is enhanced by addition of an antioxidant to the formulation. Acceptable antioxidants include, but are not limited to, citric acid, d,l-α-tocopherol, BHA, BHT, monothioglycerol, ascorbic acid, propyl gallate, and mixtures thereof. Generally, the parenteral formulations useful in this embodiment of the invention will contain an antioxidant component(s) in a concentration ranging from 0.001% to 1% w/v, or 0.01% to 0.5% w/v, of the cosolvent concentrate, although lower or higher concentrations may be desired. Of the antioxidants, d,l-α-tocopherol is particularly desirable and is used at a concentration of 0.01 to 0.1% w/v with a preferred concentration of 0.075% w/v of the cosolvent concentrate.
Examples of such chelating agents include, e.g., citric acid, acetic acid, and ascorbic acid (which may function as both a classic antioxidant and a chelating agent in the present formulations). Other chelating agents include such materials as are capable of binding metal ions in solution, such as ethylene diamine tetra acetic acid (EDTA), its salts, or amino acids such as glycine are capable of enhancing the stability of CCI-779. […] Optimal concentrations for the selected antioxidant(s) can be readily determined by one of skill in the art, based upon the information provided herein.

[2] = test system: human glioblastoma cell line; conditions: human glioblastoma cell line in vitro; cited from earlier work
[3] = test system: histologically diverse tumor cells; conditions: cited from earlier work
human tumor xenografts = conditions: nude mice, cited from earlier work

## CO[C@H]1C[C@@H]2CC[C@@H](C)[C@@](O)(O2)C(=O)C(=O)N2CCCC[C@H]2C(=O)O[C@H]([C@H](C)C[C@@H]2CC[C@@H](OC(=O)C(C)(CO)CO)[C@H](OC)C2)CC(=O)[C@H](C)/C=C(\C)[C@@H](O)[C@@H](OC)C(=O)[C@H](C)C[C@H](C)/C=C/C=C/C=C/1C [CCI-779, Rapamycin 42-ester with 3-hydroxy-2-(hydroxymethyl)-2-methylpropionic acid]
Orthotopic glioma
  activity in orthotopic glioma model: active
[1]
  stability of CCI-779: enhanced the stability
[2]
  growth factor (platelet-derived)-induced stimulation: markedly suppressed
[3]; in vitro tumor cells
  cell cycle effect: arrested cells in the G1 phase
[3]; in vitro, CNS cancer, leukemia (T-cell), breast cancer, prostate cancer and melanoma lines among the most sensitive
  growth of tumor cells: inhibit the growth
Human tumor xenografts; in vivo
  growth of several human pancreatic tumors and one of two breast cancer lines: inhibited
Human tumor xenografts; gliomas particularly sensitive
  activity against human tumor xenografts of diverse histological types: has activity
